In patent publication US20100267635A1, “USE OF PROTEASE INHIBITORS AND GRF MOLECULES IN COMBINATION THERAPY” (THERATECHONOLGIES INC., priority 2009, published 2010):

Columns and labels:
[1] = Two-way crossover drug interaction study: plasma ritonavir PK with (Treatment A) and without (Treatment B) TH9507; assay type: in vivo, human
Experimental: (§1) 2 ml of TH9507 (1 mg/ml injectable solution) was administered by subcutaneous injection under fasting conditions once daily for 7 consecutive days (daily dose of 2 mg TH9507).
(§2) N=32 healthy adult (male and female) subjects were enrolled. Dosing occurred in two groups.
(§3) PK/statistics: PK parameters were calculated using standard noncompartmental approaches.
(§4) The 90% CIs for the Treatment A/Treatment B LSM ratios for AUC0-t.

[2] = Plasma TH9507 PK (ELISA) on day 6 in the ritonavir interaction study; assay type: in vivo; conditions: both sexes, human, sc, 2 mg s.c. once daily
Experimental: as §1, §2, §3

[3] = system: CYP3A; experiment: Impact of TH9507 on CYP3A activity, concluded from the ritonavir PK interaction study; assay type: in vivo, human; conditions: 2 mg TH9507 s.c. days 1 to 7, ritonavir as probe
From the text: as §4

Row | Cmax ([1]; both sexes, human, plasma, oral, 100 mg) | AUC(0-inf) ([1]; both sexes, human, plasma, oral, 100 mg, read-out: AUC0-inf Treatment B) | AUC(0-t) ([1]; both sexes, human, plasma, oral, 100 mg, read-out: AUC0-t Treatment B) | half-life ([1]; both sexes, human, plasma, oral, 100 mg, read-out: T1/2 Treatment B (converted)) | Tmax ([1]; both sexes, human, plasma, oral, 100 mg, read-out: Tmax Treatment B) | Tmax ([1]; both sexes, human, plasma, oral, read-out: Tmax Treatment A) | T1/2 Treatment A ([1]; plasma ritonavir, with TH9507, arithmetic mean (% CV)) | SMILES | half-life ([2]; arithmetic mean) | AUC(0-inf) ([2]; geometric mean) | AUC(0-t) ([2]; geometric mean) | Cmax ([2]; geometric mean) | Tmax ([2]; median) | impact on CYP3A activity [3]
1 | 453 ng/mL | 3800 ng·h/mL | 3720 ng·h/mL | 6.26 h | 4.5 h | 4.5 h | 5.72 (23.0) h | CC(C)c1nc(CN(C)C(=O)N[C@H](C(=O)N[C@@H](Cc2ccccc2)C[C@H](O)[C@H](Cc2ccccc2)NC(=O)OCc2cncs2)C(C)C)cs1 [Ritonavir, 1,3-thiazol-5-ylmethyl N-[(2S,3S,5S)-3-hydroxy-5-[(2S)-3-methyl-2-{[methyl({[2-(propan-2-yl)-1,3-thiazol-4-yl]methyl})carbamoyl]amino}butanamido]-1,6-diphenylhexan-2-yl]carbamate] |  |  |  |  |  | 
2 |  |  |  |  |  |  |  | CC/C=C/CC(=O)N[C@@H](Cc1ccc(O)cc1)C(=O)N[C@@H](C)C(=O)N[C@@H](CC(=O)O)C(=O)N[C@@H](C)C(=O)N[C@H](C(=O)N[C@@H](Cc1ccccc1)C(=O)N[C@H](C(=O)N[C@@H](CC(N)=O)C(=O)N[C@@H](CO)C(=O)N[C@@H](Cc1ccc(O)cc1)C(=O)N[C@@H](CCCNC(=N)N)C(=O)N[C@@H](CCCCN)C(=O)N[C@H](C(=O)N[C@@H](CC(C)C)C(=O)NCC(=O)N[C@@H](CCC(N)=O)C(=O)N[C@@H](CC(C)C)C(=O)N[C@@H](CO)C(=O)N[C@@H](C)C(=O)N[C@@H](CCCNC(=N)N)C(=O)N[C@@H](CCCCN)C(=O)N[C@@H](CC(C)C)C(=O)N[C@@H](CC(C)C)C(=O)N[C@@H](CCC(N)=O)C(=O)N[C@@H](CC(=O)O)C(=O)N[C@H](C(=O)N[C@@H](CCSC)C(=O)N[C@@H](CO)C(=O)N[C@@H](CCCNC(=N)N)C(=O)N[C@@H](CCC(N)=O)C(=O)N[C@@H](CCC(N)=O)C(=O)NCC(=O)N[C@@H](CCC(=O)O)C(=O)N[C@@H](CO)C(=O)N[C@@H](CC(N)=O)C(=O)N[C@@H](CCC(N)=O)C(=O)N[C@@H](CCC(=O)O)C(=O)N[C@@H](CCCNC(=N)N)C(=O)NCC(=O)N[C@@H](C)C(=O)N[C@@H](CCCNC(=N)N)C(=O)N[C@@H](C)C(=O)N[C@@H](CCCNC(=N)N)C(=O)N[C@@H](CC(C)C)C(N)=O)[C@@H](C)CC)C(C)C)[C@@H](C)O)[C@@H](C)CC [TH9507, (hexenoyl trans-3)hGRF(1-44)NH2] | 6.6 min | 0.79 ng·h/mL | 0.657 ng·h/mL | 2.7 ng/mL | 9 min | not significant
